Molecules are shown by their SMILES. “Also recorded” adds a separate entry of the source.

Holding throughout (assay type): in vivo, mouse
Series [1] deals with CFTR−/− mice. Briefly: Pancreatic morphology / luminal diameter in CFTR−/− mice. Particulars: for Effect on pancreas morphology (in words): 40 mg/day for one week (fish oil: dose equivalent to 40 mg DHA, 60 mg EPA, 15 mg LNA), vs Peptamen alone. The procedure:
CF and WT mice were fed as outlined in the method section above. Dilation of the pancreatic duct lumen is a hallmark feature of cystic fibrosis. Therefore, the luminal area was measured from a minimum of 30 images from CF knockout mice treated with Peptamen™ alone or Peptamen™ plus 40 mg/day of DHA as well as wild type (WT) mice treated with Peptamen™ alone beginning at the time of weaning. Animals were sacrificed at 37 days of age and each pancreas fixed in glutaraldehyde. Analysis was performed using NIH Image software. The results are outlined in FIG. 1. […] No other treatment to date has shown tissue improvements at a morphological level.
The morphology of various organs were also studied. Sample preparation were carried out as follows: 1-2 cm of ileum adjacent to the cecum was fixed in formalin, embedded in paraffin, cut in cross-section, and stained with hematoxylin/eosin. For pancreatic analyses, 2-3 mm pieces of pancreas were fixed for 1.5 h in 2% glutaraldehyde in 0.2M cacodylate buffer. Tissue samples were then washed in 0.2M cacodylate buffer and subsequently postfixed for 1 h in 1% osmium tetroxide in 0.1 M cacodylate buffer. Tissue was embedded in epon and thick sections stained with 1% toluidine blue.
Morphometry: For measurement of ileal villus height or pancreatic luminal diameter, multiple images were randomly taken at 200× using a Nikon Microphot-SA microscope equipped with a Diagnostic Instruments, Inc., Spot Digitizing System. Images were examined in a blinded fashion by two independent observers. Quantitation was performed using NIH Imaging Software. The differences between the means in the groups tested were evaluated using the Student's t-test.
Tissue samples from these mice were prepared for light microscopy and sections analyzed at 200×. Pancreatic acinar cell morphology of CFTR−/− control mice is characterized by massive luminal dilatation and zymogen granule accumulation at the apical pole of the acinar cells (data not shown), two hallmark features of cystic fibrosis pathology (W. V. L. Go. (1993) Pancreas: Biology, Pathobiology, and Disease, Chapter 54:1041-1081). […] Luminal diameter is approximately 9fold greater in CFTR−/− mice. […] There also appeared to be a decrease in ductal plugs DGA-fed CFTR−/− mice; however, this observation was not subjected to morphometric analysis.
Additional experiments were performed to observe the effect of administering the DHA precursor docosapentaenoic acid (DPA,22:5n-3) on DHA levels. Wild-type and CFTR−/− mice were fed with 40 mg of DPA per day for 7 days and fatty acids in pancreas and lung analyzed by GC/MS. One to 2 mm pieces of pancreas from both wild-type and CFTR−/−were fixed for 1.5 h in […] in 0.2M cacodylate buffer and processed for morphometric analysis.

A further series relates to wild-type pregnant mice. Briefly: DHA administration to wild-type pregnant mice: fetal lung surfactant (DPPC), fetal lung and brain DHA. From the text: The invention also provides a method for improving the amount of fetal lung surfactant in a mouse model. It appears that this is accomplished by upregulating fetal lung surfactant biosynthesis during pregnancy. This method again utilizes giving high doses of DHA which increases DHA and fetal surfactant levels in the fetal lung. Gestation in mice lasts about 19.5 days and previous reports have shown that surfactant levels in amniotic fluid are not detected until after day 16.5, equivalent to about 30 to 32 weeks gestational age in humans. Wild-type C57 mice were bred and identification of the cervical plug was used to determine the occurrence of pregnancy and gestational age. Beginning on day 9.5 of pregnancy (equivalent to about 24 weeks of gestational age in humans), mice were placed on Peptamen™ ±DHA for one week at different doses and sacrificed on day 16.5. Following sacrifice, amniotic fluid was aspirated from the amniotic sacs, and DPPC concentration determined by micro-HPTLC. In a different set of experiments, fetal lung and brain were removed, homogenized, lipids extracted with chloroform-methanol, and fatty acids transmethylated and analyzed by gas chromatography.

The test system of another series is wild-type mice. Nature of the series: DHA and AA levels in plasma, red blood cells and pancreas following DHA therapy. Particulars: 40 mg DHA/day. The procedure:
In this Example, levels of DHA and AA in various blood components following administration of 40 mg DHA/day to mice was determined. In particular, 40 mg DHA was given to wild type mice and levels of DHA (Table 11) and AA (Table 12) were measured in plasma, red blood cells (RBC), and the pancreas. […] Accordingly, either plasma or red blood cell levels of DHA and AA (and their ratios) can be used as a diagnostic or to determine the effectiveness of treatment in the pancreas and other affected organs.

The subject of series [2] is CFTR−/− mice. Briefly: Fatty acid levels (GC/MS) in pancreas and lung cells of CFTR−/− mice fed n-3 fatty acids. Particulars: for AA level in pancreas: CFTR-/- mice, 40 mg/day for one week (fish oil: dose equivalent to 40 mg DHA, 60 mg EPA, 15 mg LNA), mean ± S.D.
The mark [3] stands for this setting: day 16.5, 20 mg/day DHA to the pregnant mouse from day 9.5.
Setting [4] is: CFTR (-/-) mice, 40 mg DPA per day for 7 days.

Turning to `CC/C=C\C/C=C\C/C=C\C/C=C\C/C=C\C/C=C\CCC(=O)O` [DHA, docosahexaenoic acid], the “Decrease in pancreatic luminal diameter” value with CFTR−/− mice [1] (oral 40 mg/day for 7 days, p<0.0001, n=6) turned out to be 63%. Further, in the series with wild-type pregnant mice (10 or 20 mg DHA/day to preterm wild-type pregnant mice), the “DHA in fetal brain (in words)” value is on record as “significant increase in DHA in fetal brain”. The “DPPC concentration in amniotic fluid” value in the series with wild-type pregnant mice (day 16.5, 5 mg/day DHA from day 9.5) was found to be 9.3 ± 2.6 µg/mL. Besides, in the series with wild-type pregnant mice (day 16.5, 10 mg/day DHA to the pregnant mouse from day 9.5), the “DHA concentration in fetal brain” value came to 15.6 ± 1.1 nmoles/mg protein. Besides, in the series with wild-type pregnant mice (day 16.5, 20 mg/day DHA from day 9.5), the “DPPC concentration in amniotic fluid” value was found to be 18.0 ± 3.6 µg/mL. Besides, in the series on wild-type pregnant mice (setting [3]), the “DHA concentration in fetal brain” value was 28.9 ± 1.9 nmoles/mg protein and the “DHA concentration in fetal lung” value was 29.8 ± 5.5 nmoles/mg protein. The Placental transfer entry in the series on wild-type pregnant mice (pregnant mice) was “readily crosses the placenta”. In the series on wild-type mice (day 2), the “Phospholipid-bound AA level in RBC” value was 10.1 nmoles/100 million cells, the “Phospholipid-bound AA level in pancreas” value is on record as 262 nmoles per total extract, the “Phospholipid-bound AA level in plasma” value was found to be 227 µg/mL and the “Phospholipid-bound DHA level in pancreas” value turned out to be 67.8 nmoles per total extract. In the series on wild-type mice (day 4), the “Phospholipid-bound AA level in RBC” value amounted to 6.2 nmoles/100 million cells, the “Phospholipid-bound AA level in pancreas” value is on record as 139 nmoles per total extract, the “Phospholipid-bound AA level in plasma” value worked out at 123 µg/mL and the “Phospholipid-bound DHA level in pancreas” value is reported as 101.0 nmoles per total extract. For the same compound, in the series on wild-type mice (day 7), the “Phospholipid-bound AA level in RBC” value amounted to 3.7 nmoles/100 million cells, the “Phospholipid-bound AA level in pancreas” value was 104 nmoles per total extract, the “Phospholipid-bound AA level in plasma” value was found to be 84 µg/mL and the “Phospholipid-bound DHA level in pancreas” value was found to be 125 nmoles per total extract. The “AA level in pancreas” value in the series with CFTR−/− mice [2] is 4.9 ± 1.8 nmol/mg.
Turning to `CC/C=C\C/C=C\C/C=C\C/C=C\C/C=C\CCCCCC(=O)O` [DPA, docosapentaenoic acid], the “Improvement in pancreas morphology (pancreatic ductal diameter, presence of plugs)” value with CFTR−/− mice [1] (40 mg per day for 7 days) turned out to be 20%. Further, in the series with CFTR−/− mice [2] (setting [4]), the “20:5n-3 in pancreas” value was 14.6 ± 1.1 (0.1) nmoles of fatty acid per mg of protein and the “22:6n-3 in pancreas” value is recorded as 2.0 ± 0.4(1.5) nmoles of fatty acid per mg of protein. Moreover, the “AA level in pancreas” value in the series with CFTR−/− mice [2] was determined as 5.1 ± 0.6 nmol/mg.
As for `CC/C=C\C/C=C\C/C=C\CCCCCCCC(=O)O` [LNA, α-linolenic acid, reference compound], the “Effect on pancreas morphology (in words)” value in the series with CFTR−/− mice [1] is “significant increase in acinar lumen dilatation and plug formation; also recorded: significant increase in ductal dilatation; also recorded: increased acinar lumen dilation and plug formation”; with CFTR−/− mice [1] (listed as 18:3n-3), “worsening of the pathological changes in the pancreas”. Further, the “AA level in pancreas” value in the series on CFTR−/− mice [2] is 5.5 ± 0.8 nmol/mg.
